Reference: patent US11407736B2 (priority 2019, dated 2022)
Where two headings read alike, the source gives them in different places.

Assays:
[1] = biological target: RIPK1 (Homo sapiens (Human), UniProt Q13546); experiment: RIPK1 ADP-Glo biochemical kinase assay
Method: The final reaction volume was 5.0ul.
Adding 5 μl of ADP-Glo™ terminated the reaction.

[2] = test system: L929 cells; experiment: L929 cell necroptosis assay (TNFa + zVAD, CellTiter-Glo); type: cell-based, murine
Summary of the method: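 Murine L929 cells, plated 18 h beforehand at 10K cells/well in RPMI 1640 with 10% FBS, were switched to medium containing 40 uM zVAD-fmk and given compound from 4-fold serial dilutions. Viability after 18 h of TNFa stimulation at 37° C was read by CellTiter-Glo luminescence.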

[3] = test system: U937 cells; experiment: U937 cell necroptosis assay (TNFa + zVAD, CellTiter-Glo); type: cell-based, human
Summary of the method: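 Human U937 and murine L929 cells in RPMI 1640/10% FBS were pre-incubated 1 h at 37 °C with serially diluted compound plus zVAD-fmk (U937 plated with 60 uM, L929 medium with 40 uM), then stimulated with 2 ng/mL TNFa (final). Viability read by CellTiter-Glo luminescence after 18 h.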

[4] = Mus musculus, L929, L929 cells, TNFa + zVAD, read-out: L929-CTG-recovery, L929, TNFa + zVAD (IC50)
[5] = Homo sapiens, U-937, U937 cells, TNFa + zVAD, read-out: U937 Zvad TNF CTG Recovery, U937, TNFa + zVAD (IC50)
[6] = read-out: RIPK1 ADP-Glo Kinase (IC50)

RIPK1, sequence (Q13546 whole entry, species assumed): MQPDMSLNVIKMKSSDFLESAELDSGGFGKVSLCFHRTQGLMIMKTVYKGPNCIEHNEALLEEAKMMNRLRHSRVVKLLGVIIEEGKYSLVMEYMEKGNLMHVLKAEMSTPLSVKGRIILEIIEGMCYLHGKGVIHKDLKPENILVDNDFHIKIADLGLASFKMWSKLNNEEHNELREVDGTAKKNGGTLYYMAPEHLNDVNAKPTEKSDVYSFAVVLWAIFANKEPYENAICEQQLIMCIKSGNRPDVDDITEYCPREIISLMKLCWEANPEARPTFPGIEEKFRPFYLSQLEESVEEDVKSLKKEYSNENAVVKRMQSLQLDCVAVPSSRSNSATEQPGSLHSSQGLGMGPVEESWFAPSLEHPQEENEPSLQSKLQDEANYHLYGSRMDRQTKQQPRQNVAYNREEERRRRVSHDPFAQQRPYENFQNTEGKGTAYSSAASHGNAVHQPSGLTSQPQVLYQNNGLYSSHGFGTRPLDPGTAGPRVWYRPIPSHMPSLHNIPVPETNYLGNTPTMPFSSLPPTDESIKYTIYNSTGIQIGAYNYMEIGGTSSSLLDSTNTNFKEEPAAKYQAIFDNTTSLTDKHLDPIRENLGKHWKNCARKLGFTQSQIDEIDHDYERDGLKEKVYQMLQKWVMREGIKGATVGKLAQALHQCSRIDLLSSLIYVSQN

IC50 [1, 6] [nM] | SMILES | IC50 [1] [nM] | IC50 [2, 4] [nM] | IC50 [3, 5] [nM] | IC50 ([2]; Mus musculus, L929, read-out: L929-CTG-recovery, L929, TNFa + zVAD (IC50), L929 cells, TNFa + zVAD) [nM] | IC50 ([3]; Homo sapiens, U-937, read-out: U937 Zvad TNF CTG Recovery, U937, TNFa + zVAD (IC50), U937 cells, TNFa + zVAD) [nM] | IC50 ([2]; L929 cells, TNFa + zVAD, read-out: L929-CTG-recovery, L929, TNFa + zVAD (IC50)) [nM] | IC50 ([3]; U937 cells, TNFa + zVAD, read-out: U937 Zvad TNF CTG Recovery, U937, TNFa + zVAD (IC50)) [nM]
49.2 | CN1C(=O)[C@@H](NC(=O)c2n[nH]c(Cc3ccc(F)cc3F)n2)COc2ccc(CCC(=O)N3CCCC3)cc21 [Compound I-34, (S)-5-(2,4-difluorobenzyl)-N-(5-methyl-4-oxo-7-(3-oxo-3-(pyrrolidin-1-yl)propyl)-2,3,4,5-tetrahydrobenzo[b][1,4]oxazepin-3-yl)-1H-1,2,4-triazole-3-carboxamide] |  | 9590 | 22.2 |  |  |  | 
64.1 | C=C(C)C#Cc1ccc2c(c1)NC(=O)[C@@H](NC(=O)c1n[nH]c(Cc3ccccc3)n1)CO2 [Compound I-93, (S)-5-benzyl-N-(7-(3-methylbut-3-en-1-yn-1-yl)-4-oxo-2,3,4,5-tetrahydrobenzo[b][1,4]oxazepin-3-yl)-1H-1,2,4-triazole-3-carboxamide] |  | 921 | 3240 |  |  |  | 
21.5 | CN1C(=O)[C@@H](NC(=O)c2n[nH]c(Cc3ccccc3)n2)COc2ccc(C#CC3(O)COC3)cc21 [Compound I-57, (S)-5-benzyl-N-(7-((3-hydroxyoxetan-3-yl)ethynyl)-5-methyl-4-oxo-2,3,4,5-tetrahydrobenzo[b][1,4]oxazepin-3-yl)-1H-1,2,4-triazole-3-carboxamide] |  | 0.9 | 3 |  |  |  | 
56.5 | CN1C(=O)[C@@H](NC(=O)c2ncn(Cc3ccccc3)n2)COc2ccc(C#CCCOc3ccc4ncccc4c3)cc21 [Compound I-37, (S)-1-benzyl-N-(5-methyl-4-oxo-7-(4-(quinolin-6-yloxy)but-1-yn-1-yl)-2,3,4,5-tetrahydrobenzo[b][1,4]oxazepin-3-yl)-1H-1,2,4-triazole-3-carboxamide] |  | 0.2 | 1 |  |  |  | 
65.6 | CN1C(=O)[C@@H](NC(=O)c2ncn(Cc3ccccc3)n2)COc2ccc(CCC(=O)NC3CC3)cc21 [Compound I-26, (S)-1-benzyl-N-(7-(3-(cyclopropylamino)-3-oxopropyl)-5-methyl-4-oxo-2,3,4,5-tetrahydrobenzo[b][1,4]oxazepin-3-yl)-1H-1,2,4-triazole-3-carboxamide] |  | 613 | 4.4 |  |  |  | 
21.7 | CN1C(=O)[C@@H](NC(=O)c2nnc(Cc3ccccc3)o2)COc2ccc(C#CC(C)(C)O)cc21 [Compound I-71, (S)-5-benzyl-N-(7-(3-hydroxy-3-methylbut-1-yn-1-yl)-5-methyl-4-oxo-2,3,4,5-tetrahydrobenzo[b][1,4]oxazepin-3-yl)-1,3,4-oxadiazole-2-carboxamide] |  | 0.2 | 0.9 |  |  |  | 
22.3 | CN1C(=O)[C@@H](NC(=O)c2n[nH]c(Cc3ccccc3)n2)COc2ccc(C#CCCCO)cc21 [Compound I-35, (S)-5-benzyl-N-(7-(5-hydroxypent-1-yn-1-yl)-5-methyl-4-oxo-2,3,4,5-tetrahydrobenzo[b][1,4]oxazepin-3-yl)-1H-1,2,4-triazole-3-carboxamide] |  | 17.8 | 3.1 |  |  |  | 
32.1 | CN1C(=O)[C@@H](NC(=O)n2cc(Cc3ccccc3)cn2)COc2ccc(C#Cc3ccccn3)cc21 [Compound I-215, (S)-4-Benzyl-N-(5-methyl-4-oxo-7-(pyridin-2-ylethynyl)-2,3,4,5-tetrahydrobenzo[b][1,4]oxazepin-3-yl)-1H-pyrazole-1-carboxamide] |  | 20.9 | 0.3 |  |  |  | 
141 | CN1C(=O)[C@@H](NC(=O)n2ccc(Cc3ccc(F)cc3)n2)COc2ccc(C#CC3(O)CCC3)cc21 [Compound I-223, (S)-3-(4-Fluorobenzyl)-N-(7-((1-hydroxycyclobutyl)ethynyl)-5-methyl-4-oxo-2,3,4,5-tetrahydrobenzo[b][1,4]oxazepin-3-yl)-1H-pyrazole-1-carboxamide] |  | 10300 | 627 |  |  |  | 
59.8 | Cc1cc(Oc2ccccc2)cc(C(=O)N[C@H]2COc3ccc(C#CC(C)(C)O)cc3N(C)C2=O)n1 [Compound I-119, (S)—N-(7-(3-hydroxy-3-methylbut-1-yn-1-yl)-5-methyl-4-oxo-2,3,4,5-tetrahydrobenzo[b][1,4]oxazepin-3-yl)-6-methyl-4-phenoxypicolinamide] |  | 4050 | 14.6 |  |  |  | 
37.5 | CN1C(=O)[C@@H](NC(=O)c2n[nH]c(Cc3ccccc3)n2)COc2ccc(CCC(C)(C)O)cc21 [Compound I-28, (S)-5-benzyl-N-(7-(3-hydroxy-3-methylbutyl)-5-methyl-4-oxo-2,3,4,5-tetrahydrobenzo[b][1,4]oxazepin-3-yl)-1H-1,2,4-triazole-3-carboxamide] |  | 674 | 5.4 |  |  |  | 

Second part, the molecule before the results:

SMILES | IC50 [1, 6] [nM] | IC50 [1] [nM] | IC50 [2, 4] [nM] | IC50 [3, 5] [nM] | IC50 ([2]; Mus musculus, L929, read-out: L929-CTG-recovery, L929, TNFa + zVAD (IC50), L929 cells, TNFa + zVAD) [nM] | IC50 ([3]; Homo sapiens, U-937, read-out: U937 Zvad TNF CTG Recovery, U937, TNFa + zVAD (IC50), U937 cells, TNFa + zVAD) [nM] | IC50 ([2]; L929 cells, TNFa + zVAD, read-out: L929-CTG-recovery, L929, TNFa + zVAD (IC50)) [nM] | IC50 ([3]; U937 cells, TNFa + zVAD, read-out: U937 Zvad TNF CTG Recovery, U937, TNFa + zVAD (IC50)) [nM]
CN1CCN(C(C)(C)C#Cc2ccc3c(c2)N(C)C(=O)[C@@H](NC(=O)c2cc(Oc4ccccc4)ccn2)CO3)CC1 [Compound I-158, (S)—N-(5-methyl-7-(3-methyl-3-(4-methylpiperazin-1-yl)but-1-yn-1-yl)-4-oxo-2,3,4,5-tetrahydrobenzo[b][1,4]oxazepin-3-yl)-4-phenoxypicolinamide] |  | 14.7 | 1640 | 9.5 |  |  |  | 
CC(=O)N1CCC(O)(C#Cc2ccc3c(c2)N(C)C(=O)[C@@H](NC(=O)c2cc(Oc4ccc(F)cc4)ccn2)CO3)CC1 [Compound I-134, (S)—N-(7-((l-acetyl-4-hydroxypiperidin-4-yl)ethynyl)-5-methyl-4-oxo-2,3,4,5-tetrahydrobenzo[b][1,4]oxazepin-3-yl)-4-(4-fluorophenoxy)picolinamide] | 52.8 |  | 608 | 27.4 |  |  |  | 
CN1C(=O)[C@@H](NC(=O)c2cc(Oc3ccccc3)ccn2)COc2ccc(C#CC3(O)CCCC3)cc21 [Compound I-98, (S)—N-(7-((1-hydroxycyclopentyl)ethynyl)-5-methyl-4-oxo-2,3,4,5-tetrahydrobenzo[b][1,4]oxazepin-3-yl)-4-phenoxypicolinamide] |  | 29.6 | 36.8 | 1.6 |  |  |  | 
CN1C(=O)[C@@H](NC(=O)c2cc(Oc3ccc(F)cc3)ccn2)COc2ccc(C#CC(C)(C)O)cc21 [Compound I-100, (S)-4-(4-fluorophenoxy)-N-(7-(3-hydroxy-3-methylbut-1-yn-1-yl)-5-methyl-4-oxo-2,3,4,5-tetrahydrobenzo[b][1,4]oxazepin-3-yl)picolinamide] | 39.2 |  | 263 | 8.3 |  |  |  | 
CN1C(=O)[C@@H](NC(=O)c2ncn(Cc3c(Cl)cccc3Cl)n2)COc2ccc(CCC(=O)N3CCCC3)cc21 [Compound I-18, (S)-1-(2,6-dichlorobenzyl)-N-(5-methyl-4-oxo-7-(3-oxo-3-(pyrrolidin-1-yl)propyl)-2,3,4,5-tetrahydrobenzo[b][1,4]oxazepin-3-yl)-1H-1,2,4-triazole-3-carboxamide] | 164 |  | 280 | 1.3 |  |  |  | 
CN1C(=O)[C@@H](NC(=O)c2cc(Oc3ccccc3F)ccn2)COc2ccc(C#CC(C)(C)C)cc21 [Compound I-102, (S)—N-(7-(3,3-dimethylbut-1-yn-1-yl)-5-methyl-4-oxo-2,3,4,5-tetrahydrobenzo[b][1,4]oxazepin-3-yl)-4-(2-fluorophenoxy)picolinamide] | 383 |  | 397 | 27.3 |  |  |  | 
CC(C)[C@H](N)C(=O)OC1(C#Cc2ccc3c(c2)N(C)C(=O)[C@@H](NC(=O)c2cc(Oc4ccccc4)ccn2)CO3)COC1 [Compound I-160, 3-(((S)-5-methyl-4-oxo-3-(4-phenoxypicolinamido)-2,3,4,5-tetrahydrobenzo[b][1,4]oxazepin-7-yl)ethynyl)oxetan-3-yl L-valinate] | 25.3 |  | 44.2 | 0.9 |  |  |  | 
CN1C(=O)[C@@H](NC(=O)c2ncn(Cc3c(Cl)cccc3Cl)n2)COc2ccc(CCC(=O)NC3CC3)cc21 [Compound I-19, (S)—N-(7-(3-(cyclopropylamino)-3-oxopropyl)-5-methyl-4-oxo-2,3,4,5-tetrahydrobenzo[b][1,4]oxazepin-3-yl)-1-(2,6-dichlorobenzyl)-1H-1,2,4-triazole-3-carboxamide] | 146 |  | 1300 | 2.7 |  |  |  | 
CN1C(=O)[C@@H](NC(=O)c2cc(Oc3ccc(F)cc3F)ccn2)COc2ccc(C#CC3(O)COC3)cc21 [Compound I-114, (S)-4-(2,4-difluorophenoxy)-N-(7-((3-hydroxyoxetan-3-yl)ethynyl)-5-methyl-4-oxo-2,3,4,5-tetrahydrobenzo[b][1,4]oxazepin-3-yl)picolinamide] | 20.2 |  | 90.4 | 4.7 |  |  |  | 
CC(C)N1CC(O)(C#Cc2ccc3c(c2)N(C)C(=O)[C@@H](NC(=O)c2cc(Oc4ccccc4)ccn2)CO3)C1 [Compound I-195, (S)—N-(7-((3-hydroxy-1-isopropylazetidin-3-yl)ethynyl)-5-methyl-4-oxo-2,3,4,5-tetrahydrobenzo[b][1,4]oxazepin-3-yl)-4-phenoxypicolinamide] | 15.3 |  |  |  | 268 | 1.1 |  | 
CN[C@@H](C)C(=O)OC1(C#Cc2ccc3c(c2)N(C)C(=O)[C@@H](NC(=O)c2cc(Oc4ccccc4)ccn2)CO3)COC1 [Compound I-193] | 55.3 |  |  |  |  |  | 7060 | 361
